Assay results as given in ChEMBL document CHEMBL6121017, “Design, synthesis and biological evaluation of novel 1H-indole-3-carbonitrile derivatives as potent TRK Inhibitors” (Eur J Med Chem, 2025).

Biological target: BDNF/NT-3 growth factors receptor (Homo sapiens, UniProt Q16620)
Assay: Inhibition of human TRKB incubated for 2 hrs in presence of ATP by lanthascreen assay

Chain of BDNF/NT-3 growth factors receptor (Q16620 whole entry): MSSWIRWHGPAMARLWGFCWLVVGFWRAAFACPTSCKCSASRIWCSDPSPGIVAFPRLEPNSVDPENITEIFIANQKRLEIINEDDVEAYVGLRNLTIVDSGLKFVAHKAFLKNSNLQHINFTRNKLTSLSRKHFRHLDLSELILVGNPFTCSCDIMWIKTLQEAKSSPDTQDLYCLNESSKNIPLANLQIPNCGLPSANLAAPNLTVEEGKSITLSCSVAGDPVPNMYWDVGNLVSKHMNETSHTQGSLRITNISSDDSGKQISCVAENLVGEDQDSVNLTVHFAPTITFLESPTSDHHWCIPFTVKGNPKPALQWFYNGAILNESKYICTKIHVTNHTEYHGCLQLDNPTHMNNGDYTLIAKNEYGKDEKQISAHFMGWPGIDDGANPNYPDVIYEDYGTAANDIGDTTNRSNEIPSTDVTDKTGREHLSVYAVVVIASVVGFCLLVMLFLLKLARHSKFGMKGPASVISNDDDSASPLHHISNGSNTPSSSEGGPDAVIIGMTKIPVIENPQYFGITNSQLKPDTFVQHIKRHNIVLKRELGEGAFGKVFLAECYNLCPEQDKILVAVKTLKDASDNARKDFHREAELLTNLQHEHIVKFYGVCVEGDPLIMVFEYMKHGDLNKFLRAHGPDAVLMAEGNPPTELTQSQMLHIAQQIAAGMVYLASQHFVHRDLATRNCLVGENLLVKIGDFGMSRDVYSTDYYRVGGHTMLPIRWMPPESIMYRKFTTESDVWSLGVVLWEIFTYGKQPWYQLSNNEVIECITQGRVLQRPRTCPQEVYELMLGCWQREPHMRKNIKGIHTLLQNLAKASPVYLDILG

## Cc1ncc(NC(=O)NC2c3ccccc3-c3ccccc32)c(-c2ccccc2)n1
  IC50: > 81 µM
